# Assay: Antiproliferative activity against human MDR1 transfected mouse L5178Y cell line
row,SMILES,IC50
1,COc1ccc(CCN(C)CCCN2C(=O)C3C4c5ccccc5C(c5ccccc54)C3C2=O)cc1OC (stereo not drawn),5.72 µM
2,COc1ccc(CCN(C)CCN2C(=O)C3C4c5ccccc5C(c5ccccc54)C3C2=O)cc1OC (stereo not drawn),4.23 µM
3,COc1ccc(CCN(C)CC#CCN2C(=O)C3C4c5ccccc5C(c5ccccc54)C3C2=O)cc1OC (stereo not drawn),2.55 µM
